The target in this experiment is T1, GLP-1 Receptor (Homo sapiens, UniProt P43220).
T1 construct: host or cells: HEK293/CRE-Luc
The experiment can be described thus: GLP-1R agonist cAMP stimulation assay. The format is cell-based. As to conditions: HEK293/CRE-Luc cell line stably expressing the GLP-1 Receptor; 30 min at 37° C.; cAMP dynamic 2 Kit. How it is done: Activation of GLP-1 receptor is known to stimulate cyclic AMP (cAMP) production in cells which indicates primary coupling to the Gas subunit of the G protein heterotrimeric complex.
To optimize functional activity directed toward Gas coupling, a HEK293/CRE-Luc cell line developed by HDB stably expressing the GLP-1 Receptor was used. 200× concentration of compound working solutions were prepared (Agilent Technologies Bravo) with ½ log serial dilution in 384-well Echo LDV plate (Labcyte, Cat #LP-0200). 50 nL/well 200× concentration of compound working solutions were moved to 384-well white low volume plate (Greiner, Cat #784075) using Labcyte ECHO550. 1×10^5 cells/mL HEK293/GLPlR/CRE-LUC (HD Biosciences) cell suspensions prepared with assay buffer [DPBS containing 0.5 mM IBMX (Sigma, Cat #15879) and 0.1% BSA (GENVIEW, Cat #FA016-100g)], 10 μL cell suspensions were added to each well of previous generated assay plate which already contains 50 nL compound at 200× concentration using ThermoFisher Multidrop Combi (1000 cells/well). Seal the plate and incubate at 37° C. with 5% CO2 for 30 min.
After incubation the cAMP assay signal was generated using cAMP dynamic 2 Kit (Cisbio). 5 μL cAMP-d2 working solution was added to each well, followed with 5 μL Anti-cAMP antibody-cryptate working solution added to each well using ThermoFisher Multidrop Combi. Incubate at room temperature for 1 hour protected from light. Read the fluorescence at 665 and 615 nm with Reader PerkinElmer EnVision.
% Activity=100%×(mean RLU of test sample mean RLU of vehicle control)/(mean RLU of MAX control−mean RLU of vehicle control))

Molecules are shown by their SMILES. pEC50: −log10 of the molar value.

T1 sequence (P43220 24-463): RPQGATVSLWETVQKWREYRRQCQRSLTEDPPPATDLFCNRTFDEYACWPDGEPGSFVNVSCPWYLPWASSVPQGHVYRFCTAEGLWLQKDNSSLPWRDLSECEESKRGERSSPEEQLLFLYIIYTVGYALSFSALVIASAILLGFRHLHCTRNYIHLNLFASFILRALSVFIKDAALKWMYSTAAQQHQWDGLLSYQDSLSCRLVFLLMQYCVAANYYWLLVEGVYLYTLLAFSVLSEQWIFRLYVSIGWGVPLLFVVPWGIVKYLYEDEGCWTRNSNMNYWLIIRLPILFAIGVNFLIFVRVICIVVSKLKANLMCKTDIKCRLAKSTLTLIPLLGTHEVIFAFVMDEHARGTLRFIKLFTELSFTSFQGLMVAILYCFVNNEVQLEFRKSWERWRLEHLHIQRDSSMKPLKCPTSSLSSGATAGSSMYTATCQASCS

Regarding `N#CC1(Cc2cc(-c3nnc(C(F)(F)F)[nH]3)cnc2CN2CCN(c3ccc(F)c(OCc4ccc(Cl)cc4F)c3)CC2)CC1` [Example 41, 1-({2-[(4-{3-[(4-chloro-2-fluorophenyl)methoxy]-4-fluorophenyl}piperazin-1-yl)methyl]-5-[5-(trifluoromethyl)-4H-1,2,4-triazol-3-yl]pyridin-3-yl}methyl)cyclopropane-1-carbonitrile], the pEC50 – broadly, −log10 of the EC50, conventionally taken in molar units – is over 9.00.
Then `N#CC1(Cc2cc(-c3nnc(C(F)(F)F)[nH]3)cnc2CN2CCN(c3ccc(Cl)c(OCc4ccc(Cl)cc4F)c3)CC2)CC1` [Example 42, 1-({2-[(4-{4-chloro-3-[(4-chloro-2-fluorophenyl)methoxy]phenyl}piperazin-1-yl)methyl]-5-[5-(trifluoromethyl)-4H-1,2,4-triazol-3-yl]pyridin-3-yl}methyl)cyclopropane-1-carbonitrile], with 7.00 to 9.00; and `C[C@H]1CN(c2ccc(F)c(OCc3ccc(Cl)cc3F)c2)CCN1Cc1ncc(-c2nnc(C(F)(F)F)[nH]2)cc1CC1(C#N)CC1` [Example 43, 1-[(2-{[(2S)-4-{3-[(4-chloro-2-fluorophenyl)methoxy]-4-fluorophenyl}-2-methylpiperazin-1-yl]methyl}-5-[5-(trifluoromethyl)-4H-1,2,4-triazol-3-yl]pyridin-3-yl)methyl]cyclopropane-1-carbonitrile], with over 9.00.
Consider `N#CC1(Cc2cc(-c3nnc(C(F)(F)F)[nH]3)cnc2CN2CCN(c3ncc(F)c(OCc4ccc(Cl)cc4F)n3)CC2)CC1` [Example 45, 1-((2-((4-(4-((4-chloro-2-fluorobenzyl)oxy)-5-fluoropyrimidin-2-yl)piperazin-1-yl)methyl)-5-(5-(trifluoromethyl)-4H-1,2,4-triazol-3-yl)pyridin-3-yl)methyl)cyclopropane-1-carbonitrile], for which the negative logarithm of the EC50 (pEC50) is 7.00 to 9.00.
Then `N#CC1(Cc2cc(-c3nnc(C(F)(F)F)[nH]3)cnc2CN2CC=C(c3cccc(OCc4ccc(Cl)cc4F)n3)CC2)CC1` [Example 47, 1-{[2-({6-[(4-chloro-2-fluorophenyl)methoxy]-1′,2′,3′,6′-tetrahydro-[2,4′-bipyridin]-1′-yl}methyl)-5-[5-(trifluoromethyl)-4H-1,2,4-triazol-3-yl]pyridin-3-yl]methyl}cyclopropane-1-carbonitrile], with over 9.00; and `N#CC1(Cc2cc(-c3nnc(C(F)(F)F)[nH]3)cnc2CN2CC=C(c3ccc(F)c(OCc4ccc(Cl)cc4F)c3)CC2)CC1` [Example 48, 1-({2-[(4-{3-[(4-chloro-2-fluorophenyl)methoxy]-4-fluorophenyl}-1,2,3,6-tetrahydropyridin-1-yl)methyl]-5-[5-(trifluoromethyl)-4H-1,2,4-triazol-3-yl]pyridin-3-yl}methyl)cyclopropane-1-carbonitrile], with 7.00 to 9.00.
As for `Cc1cc(-c2nnc(C(F)(F)F)[nH]2)nnc1CN1CCC(c2cccc3c2O[C@@](C)(c2ccc(Cl)cc2F)O3)CC1` [Example 49, (S)-3-((4-(2-(4-chloro-2-fluorophenyl)-2-methylbenzo[d][1,3]dioxol-4-yl)piperidin-1-yl)methyl)-4-methyl-6-(5-(trifluoromethyl)-4H-1,2,4-triazol-3-yl)pyridazine], the pEC50 is 7.00 to 9.00.
Take `Cc1cc(-c2nnn[nH]2)nnc1CN1CCC(c2cccc3c2O[C@@](C)(c2ccc(Cl)cc2F)O3)CC1` [Example 50, 3-({4-[(2S)-2-(4-chloro-2-fluorophenyl)-2-methyl-1,3-benzodioxol-4-yl]piperidin-1-yl}methyl)-4-methyl-6-(1H-1,2,3,4-tetrazol-5-yl)pyridazine]: the pEC50 is 7.00 to 9.00.
The compound `Cc1cc(-c2noc(=O)[nH]2)nnc1CN1CCC(c2cccc3c2O[C@@](C)(c2ccc(Cl)cc2F)O3)CC1` [Example 51, (S)-3-(6-((4-(2-(4-chloro-2-fluorophenyl)-2-methylbenzo[d][1,3]dioxol-4-yl)piperidin-1-yl)methyl)-5-methylpyridazin-3-yl)-1,2,4-oxadiazol-5(4H)-one] had a pEC50 of 7.00 to 9.00.
With `Cc1nc(-c2nnc(C(F)(F)F)[nH]2)cnc1CN1CCC(c2cccc3c2O[C@@](C)(c2ccc(Cl)cc2F)O3)CC1` [Example 52, 2-({4-[(2S)-2-(4-chloro-2-fluorophenyl)-2-methyl-1,3-benzodioxol-4-yl]piperidin-1-yl}methyl)-3-methyl-5-[5-(trifluoromethyl)-4H-1,2,4-triazol-3-yl]pyrazine], the pEC50 was 7.00 to 9.00.
Then `COC1(Cc2cc(-c3nnc(C(F)(F)F)[nH]3)cnc2CN2CCC(c3cccc4c3O[C@@](C)(c3ccc(Cl)cc3F)O4)CC2)CC1` [Example 53, 2-({4-[(2S)-2-(4-chloro-2-fluorophenyl)-2-methyl-2H-1,3-benzodioxol-4-yl]piperidin-1-yl}methyl)-3-[(1-methoxycyclopropyl)methyl]-5-[5-(trifluoromethyl)-4H-1,2,4-triazol-3-yl]pyridine], with 7.00 to 9.00.
Consider `C[C@]1(c2ccc(Cl)cc2F)Oc2cccc(C3CCN(Cc4ncc(-c5nnc(C(F)(F)F)[nH]5)cc4CC4CCS4(=O)=O)CC3)c2O1` (stereo partly drawn) [Example 54, 2-{[2-({4-[(2S)-2-(4-chloro-2-fluorophenyl)-2-methyl-2H-1,3-benzodioxol-4-yl]piperidin-1-yl}methyl)-5-[5-(trifluoromethyl)-4H-1,2,4-triazol-3-yl]pyridin-3-yl]methyl}-1λ^6-thietane-1,1-dione], for which the pEC50 was 7.00 to 9.00.
`C[C@]1(c2ccc(Cl)cc2F)Oc2cccc(C3CCN(Cc4ncc(-c5nnc(C(F)(F)F)[nH]5)cc4CS(C)(=O)=O)CC3)c2O1` [Example 55, 2-({4-[(2S)-2-(4-chloro-2-fluorophenyl)-2-methyl-2H-1,3-benzodioxol-4-yl]piperidin-1-yl}methyl)-3-(methanesulfonylmethyl)-5-[5-(trifluoromethyl)-4H-1,2,4-triazol-3-yl]pyridine] had a pEC50 of over 9.00.
In turn, `CN(C)C(=O)Cc1cc(-c2nnc(C(F)(F)F)[nH]2)cnc1CN1CCC(c2cccc3c2O[C@@](C)(c2ccc(Cl)cc2F)O3)CC1` [Example 56, (S)-2-(2-((4-(2-(4-chloro-2-fluorophenyl)-2-methylbenzo[d][1,3]dioxol-4-yl)piperidin-1-yl)methyl)-5-(5-(trifluoromethyl)-4H-1,2,4-triazol-3-yl)pyridin-3-yl)-N,N-dimethylacetamide] showed a negative logarithm of the EC50 (pEC50) of 7.00 to 9.00.
`CS(=O)(=O)Cc1cc(-c2nnc(C(F)(F)F)[nH]2)cnc1CN1CCC(c2cccc(OCc3ccc(Cl)cc3F)n2)CC1` [Example 57, 2-[(4-{6-[(4-chloro-2-fluorophenyl)methoxy]pyridin-2-yl}piperidin-1-yl)methyl]-3-(methanesulfonylmethyl)-5-[5-(trifluoromethyl)-4H-1,2,4-triazol-3-yl]pyridine] had a pEC50 of 7.00 to 9.00.
Then `C[C@]1(c2ccc(Cl)cc2F)Oc2cccc(C3CCN(Cc4ncc(-c5noc(=O)[nH]5)cc4CS(C)(=O)=O)CC3)c2O1` [Example 58, 3-[6-({4-[(2S)-2-(4-chloro-2-fluorophenyl)-2-methyl-2H-1,3-benzodioxol-4-yl]piperidin-1-yl}methyl)-5-(methanesulfonylmethyl)pyridin-3-yl]-2,5-dihydro-1,2,4-oxadiazol-5-one], with over 9.00.
Then `CCS(=O)(=O)Cc1cc(-c2nnc(C(F)(F)F)[nH]2)cnc1CN1CCC(c2cccc3c2O[C@@](C)(c2ccc(Cl)cc2F)O3)CC1` [Example 59, 2-({4-[(2S)-2-(4-chloro-2-fluorophenyl)-2-methyl-2H-1,3-benzodioxol-4-yl]piperidin-1-yl}methyl)-3-[(ethanesulfonyl)methyl]-5-[5-(trifluoromethyl)-4H-1,2,4-triazol-3-yl]pyridine], with over 9.00; and `CC(c1cc(-c2nnc(C(F)(F)F)[nH]2)cnc1CN1CCC(c2cccc3c2O[C@@](C)(c2ccc(Cl)cc2F)O3)CC1)S(C)(=O)=O` (stereo partly drawn) [Example 60, 2-((4-((S)-2-(4-chloro-2-fluorophenyl)-2-methylbenzo[d][1,3]dioxol-4-yl)piperidin-1-yl)methyl)-3-(1-(methylsulfonyl)ethyl)-5-(5-(trifluoromethyl)-4H-1,2,4-triazol-3-yl)pyridine], with 7.00 to 9.00; and `CS(=O)(=O)Cc1cc(-c2nnc(C(F)(F)F)[nH]2)cnc1CN1CCC(c2ccc(F)c(OCc3ccc(Cl)cc3F)n2)CC1` [Example 61, 2-[(4-{6-[(4-chloro-2-fluorophenyl)methoxy]-5-fluoropyridin-2-yl}piperidin-1-yl)methyl]-3-(methanesulfonylmethyl)-5-[5-(trifluoromethyl)-4H-1,2,4-triazol-3-yl]pyridine], with over 9.00.
`C[C@]1(c2ccc(Cl)cc2F)Oc2cccc(C3CCN(Cc4ncc(-c5nnc(C(F)(F)F)[nH]5)nc4CC4(C#N)CC4)CC3)c2O1` [Example 62, 1-{[3-({4-[(2S)-2-(4-chloro-2-fluorophenyl)-2-methyl-2H-1,3-benzodioxol-4-yl]piperidin-1-yl}methyl)-6-[5-(trifluoromethyl)-4H-1,2,4-triazol-3-yl]pyrazin-2-yl]methyl}cyclopropane-1-carbonitrile] gave a pEC50 of over 9.00.

The record behind these values is US20250145596A1, “HETEROCYCLIC GLP-1 AGONISTS” (Gasherbrum Bio, Inc., priority 2022, published 2025).
